The nature of this series: Solubility and dissolution in simulated gastric fluid, USP Apparatus 2, non-sink conditions. The note with it: simulated gastric fluid without enzymes, 37 °C, thermodynamic from solid; simulated gastric fluid without enzyme, pH 1.2; read-out: in vitro solubility. The series is classed as physicochemical. On the procedure: Physical matrix mixtures and melted carriers were made and tested to compare the baseline solubility and background absorbance to that of the solid dispersions. The resultant solid dispersion were yellow-orange hard solids with some air pockets formed by the cooling process. The dispersion solubility and dissolution rate were analyzed by USP Apparatus 2 dissolution. The dissolution was performed under the following conditions: SGF dissolution media, 0.1 M HCL without enzymes pH 1.2; non-sink conditions of 350-370 mL media; paddle speed of 50 rpm; temperature of 37° C.; 10 mL sample pull not replaced. Analysis of the (S)-(−)-N-(α-Ethylbenzyl)-3-hydroxy-2-phenylquinoline-4-carboxamide was performed using a UV spectrophotometer at 359 nm compared to standard solutions.

The solubility is how much of the substance goes into solution per volume.

≈ marks a conversion by molar mass, not a printed value.

With `CC[C@H](NC(=O)c1c(O)c(-c2ccccc2)nc2ccccc12)c1ccccc1` [(S)-(−)-N-(α-Ethylbenzyl)-3-hydroxy-2-phenylquinoline-4-carboxamide], the solubility was 31 µg/mL (≈ 81.1 µM).

Values taken from US20030212102A1, “Novel solid dispersion compositions” (priority 2002, published 2003).
